From PubChem BioAssay AID330 (DTP/NCI, 2004)
Where “and” joins values, the source holds several entries; their conditions need not be identical. Equal values may be shown once. Toxic doses and inconclusive results are not listed.

Test system: P388 leukemia ip, CD2F1 mice, survival T/C
Assay: NCI In Vivo Anticancer Drug Screen. Data for tumor model P388 Leukemia (intraperitoneal) in CD2F1 (CDF1) mice
Details: endpoint: median survival time, higher = longer survival
How it was run: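 Mice carrying the transplanted tumor received test compound or vehicle. Survival was recorded in each group, and the value is the treated-group measurement divided by that of the vehicle-treated control group.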

[1] = dose: 50.0 mg/kg/injection, schedule: Q01DX009 (ip), vehicle: saline with Tween-80
[2] = dose: 100.0 mg/kg/injection, schedule: Q01DX009 (ip), vehicle: saline with Tween-80
[3] = dose: 200.0 mg/kg/injection, schedule: Q01DX009 (ip), vehicle: saline with Tween-80
[4] = dose: 50.0 mg/kg/injection, schedule: Q01DX005 (ip), vehicle: Klucel (hydroxypropylcellulose) (HPC)
[5] = dose: 60.0 mg/kg/injection, schedule: Q01DX005 (ip), vehicle: saline with Tween-80
[6] = dose: 120.0 mg/kg/injection, schedule: Q01DX005 (ip), vehicle: saline with Tween-80
[7] = dose: 240.0 mg/kg/injection, schedule: Q01DX005 (ip), vehicle: saline with Tween-80

With `CC(=O)N(C)c1ccc(Nc2cc(C)[nH]c3ccc4ncnc4c23)cc1` the T/C (dose: 5.0 mg/kg/injection, schedule: Q01DX005 (ip), vehicle: saline) was 120 % of control and 122 % of control, the T/C (dose: 6.25 mg/kg/injection, schedule: Q01DX005 (iv), vehicle: saline) was 100 % of control and the T/C (dose: 7.0 mg/kg/injection, schedule: Q01DX005 (ip), vehicle: saline) was 121 % of control and 123 % of control. For the same molecule, the T/C (dose: 11.0 mg/kg/injection, schedule: Q01DX005 (ip), vehicle: saline) was 123 % of control, the T/C (dose: 12.5 mg/kg/injection, schedule: Q01DX001 (iv), vehicle: saline) was 104 % of control and the T/C (dose: 12.5 mg/kg/injection, schedule: Q01DX005 (iv), vehicle: saline) was 106 % of control. For the same molecule, the T/C (dose: 12.5 mg/kg/injection, schedule: Q01DX005 (oral), vehicle: saline) was 101 % of control, the T/C (dose: 12.5 mg/kg/injection, schedule: Q01DX009 (oral), vehicle: saline) was 95 % of control and the T/C (dose: 25.0 mg/kg/injection, schedule: Q01DX001 (ip), vehicle: saline) was 110 % of control. The T/C (dose: 25.0 mg/kg/injection, schedule: Q01DX001 (iv), vehicle: saline) was 100 % of control, the T/C (dose: 25.0 mg/kg/injection, schedule: Q01DX001 (oral), vehicle: saline) was 101 % of control and the T/C (dose: 25.0 mg/kg/injection, schedule: Q01DX005 (iv), vehicle: saline) was 105 % of control. The T/C (dose: 25.0 mg/kg/injection, schedule: Q01DX005 (oral), vehicle: saline) was 100 % of control, the T/C (dose: 25.0 mg/kg/injection, schedule: Q01DX009 (oral), vehicle: saline) was 94 % of control and the T/C (dose: 50.0 mg/kg/injection, schedule: Q01DX001 (ip), vehicle: saline) was 123 % of control. The T/C (dose: 50.0 mg/kg/injection, schedule: Q01DX001 (iv), vehicle: saline) was 103 % of control, the T/C (dose: 50.0 mg/kg/injection, schedule: Q01DX001 (oral), vehicle: saline) was 99 % of control and the T/C (dose: 50.0 mg/kg/injection, schedule: Q01DX005 (ip), vehicle: saline) was 155 % of control. The T/C (dose: 50.0 mg/kg/injection, schedule: Q01DX005 (iv), vehicle: saline) was 100 % of control, the T/C (dose: 50.0 mg/kg/injection, schedule: Q01DX005 (oral), vehicle: saline) was 103 % of control and the T/C (dose: 50.0 mg/kg/injection, schedule: Q01DX009 (oral), vehicle: saline) was 103 % of control. For the same molecule, the T/C (dose: 90.0 mg/kg/injection, schedule: Q04DX002 (ip), vehicle: saline) was 158 % of control, the T/C (dose: 100.0 mg/kg/injection, schedule: Q01DX001 (ip), vehicle: saline) was 157 % of control and the T/C (dose: 100.0 mg/kg/injection, schedule: Q01DX001 (iv), vehicle: saline) was 124 % of control. For the same molecule, the T/C (dose: 100.0 mg/kg/injection, schedule: Q01DX001 (oral), vehicle: saline) was 101 % of control, the T/C (dose: 100.0 mg/kg/injection, schedule: Q01DX005 (oral), vehicle: saline) was 97 % of control and the T/C (dose: 100.0 mg/kg/injection, schedule: Q01DX009 (oral), vehicle: saline) was 104 % of control. The T/C (dose: 200.0 mg/kg/injection, schedule: Q01DX001 (oral), vehicle: saline) was 105 % of control, the T/C (dose: 200.0 mg/kg/injection, schedule: Q01DX005 (oral), vehicle: saline) was 103 % of control and the T/C (dose: 200.0 mg/kg/injection, schedule: Q01DX009 (oral), vehicle: saline) was 100 % of control. The T/C (dose: 300.0 mg/kg/injection, schedule: Q01DX001 (oral), vehicle: saline) was 102 % of control, the T/C (dose: 300.0 mg/kg/injection, schedule: Q01DX005 (oral), vehicle: saline) was 106 % of control and the T/C (dose: 400.0 mg/kg/injection, schedule: Q01DX001 (oral), vehicle: saline) was 106 % of control. The T/C (dose: 600.0 mg/kg/injection, schedule: Q01DX001 (oral), vehicle: saline) was 119 % of control, the T/C (dose: 600.0 mg/kg/injection, schedule: Q01DX005 (oral), vehicle: saline) was 119 % of control and the T/C (dose: 1200.0 mg/kg/injection, schedule: Q01DX001 (oral), vehicle: saline) was 119 % of control.
For `CC(C)C(N)C(=O)O` (stereo unspecified), the T/C (dose: 50.0 mg/kg/injection, schedule: Q01DX009 (ip), vehicle: Klucel (hydroxypropylcellulose) (HPC)) was 100 % of control, the T/C (dose: 100.0 mg/kg/injection, schedule: Q01DX009 (ip), vehicle: Klucel (hydroxypropylcellulose) (HPC)) was 100 % of control and the T/C (dose: 200.0 mg/kg/injection, schedule: Q01DX009 (ip), vehicle: Klucel (hydroxypropylcellulose) (HPC)) was 91 % of control.
In the case of `CN(O)C1=c2ccccc2=NC1=O`, the T/C [1] is reported as 91 % of control, the T/C [2] is reported as 92 % of control and the T/C [3] is reported as 114 % of control.
`CC1CCCCC1OC(=O)Nc1ccccc1` (stereo unspecified) was tested, and the T/C (dose: 50.0 mg/kg/injection, schedule: Q01DX009 (ip), vehicle: saline) was 105 % of control, the T/C (dose: 100.0 mg/kg/injection, schedule: Q01DX009 (ip), vehicle: saline) was 101 % of control and the T/C (dose: 200.0 mg/kg/injection, schedule: Q01DX009 (ip), vehicle: saline) was 100 % of control.
In the case of `COc1c2c(cc3c1C(O)=CC(=O)C3=O)OCO2`, the T/C [4] is reported as 104 % of control, the T/C (dose: 100.0 mg/kg/injection, schedule: Q01DX005 (ip), vehicle: Klucel (hydroxypropylcellulose) (HPC)) is reported as 100 % of control and the T/C (dose: 200.0 mg/kg/injection, schedule: Q01DX005 (ip), vehicle: Klucel (hydroxypropylcellulose) (HPC)) is reported as 107 % of control.
For `NC(=O)C(=O)NNc1cccc(Cl)n1`, the T/C (dose: 50.0 mg/kg/injection, schedule: Q01DX001 (ip), vehicle: Klucel (hydroxypropylcellulose) (HPC)) was 96 % of control, the T/C (dose: 100.0 mg/kg/injection, schedule: Q01DX001 (ip), vehicle: Klucel (hydroxypropylcellulose) (HPC)) was 98 % of control and the T/C (dose: 200.0 mg/kg/injection, schedule: Q01DX001 (ip), vehicle: Klucel (hydroxypropylcellulose) (HPC)) was 103 % of control.
With `CCSc1nnc(C2CCC(=O)N2Cc2ccccc2)o1` (stereo unspecified) the T/C [5] was 94 % of control, the T/C [6] was 100 % of control and the T/C [7] was 100 % of control.
`C/C(=N/NC(N)=S)c1ccc2ccccc2c1` was tested, and the T/C (dose: 0.75 mg/kg/injection, schedule: Q01DX009 (ip), vehicle: saline with Tween-80) was 109 % of control, the T/C (dose: 1.5 mg/kg/injection, schedule: Q01DX009 (ip), vehicle: saline with Tween-80) was 110 % of control and the T/C (dose: 3.0 mg/kg/injection, schedule: Q01DX009 (ip), vehicle: saline with Tween-80) was 108 % of control. The T/C (dose: 5.33 mg/kg/injection, schedule: Q01DX009 (ip), vehicle: saline with Tween-80) was 117 % of control and the T/C (dose: 6.0 mg/kg/injection, schedule: Q01DX009 (ip), vehicle: saline with Tween-80) was 121 % of control.
`O=[N+]([O-])c1ccc(C=C2C(Cl)=C(Cl)C(Cl)=C2Cl)cc1` was tested, and the T/C (dose: 6.25 mg/kg/injection, schedule: Q01DX009 (ip), vehicle: saline with Tween-80) was 91 % of control and the T/C (dose: 12.5 mg/kg/injection, schedule: Q01DX009 (ip), vehicle: saline with Tween-80) was 100 % of control.
`Cn1c(=O)ccc2c(=O)c3cc(Br)ccc3oc21` was tested, and the T/C (dose: 100.0 mg/kg/injection, schedule: Q01DX001 (ip), vehicle: saline with Tween-80) was 98 % of control, the T/C (dose: 200.0 mg/kg/injection, schedule: Q01DX001 (ip), vehicle: saline with Tween-80) was 107 % of control and the T/C (dose: 400.0 mg/kg/injection, schedule: Q01DX001 (ip), vehicle: saline with Tween-80) was 96 % of control.
With `CCCOCCOCCOC(C)Oc1ccc(OC)cc1` (stereo unspecified) the T/C [5] was 105 % of control, the T/C [6] was 104 % of control and the T/C [7] was 104 % of control.
In the case of `COc1cc(C)c2c(OC)c(C)c(=O)oc2c1OC`, the T/C (dose: 6.25 mg/kg/injection, schedule: Q01DX005 (ip), vehicle: Klucel (hydroxypropylcellulose) (HPC)) is reported as 105 % of control, the T/C (dose: 12.5 mg/kg/injection, schedule: Q01DX005 (ip), vehicle: Klucel (hydroxypropylcellulose) (HPC)) is reported as 100 % of control and the T/C (dose: 25.0 mg/kg/injection, schedule: Q01DX005 (ip), vehicle: Klucel (hydroxypropylcellulose) (HPC)) is reported as 97 % of control. For the same molecule, the T/C [4] was 104 % of control.
With `CCCCn1c(C)nc2ccccc21` the T/C (dose: 50.0 mg/kg/injection, schedule: Q01DX005 (ip), vehicle: saline with Tween-80) was 100 % of control and the T/C (dose: 100.0 mg/kg/injection, schedule: Q01DX005 (ip), vehicle: saline with Tween-80) was 100 % of control.
With `CN(C)c1ccc(N=Nc2ccc3ccc4cccc5ccc2c3c45)cc1` the T/C [1] was 93 % of control, the T/C [2] was 89 % of control and the T/C [3] was 102 % of control.
